Reference: article PMC3355106, “Structural Basis for Specificity of Propeptide-Enzyme Interaction in Barley C1A Cysteine Peptidases” (PLoS ONE, 2012)
Peptide text beside a SMILES is read from it. * marks the point of attachment. AMC = Cc1cc(=O)oc2cc(N*)ccc12; Cbz = O=C(OCc1ccccc1)*

Key:
Assay in all cases: fluorescence of released AMC
Format in all cases: biochemical
Settings in all cases: pH 6.0, 30 °C, 10 mM L-cysteine, 10 mM EDTA, 0.01% Brij35
[1] = biological target: T1, BovCathB (Bos taurus, UniProt P07688)
T1 construct: gene CTSB; commercial enzyme (Calbiochem)

[2] = biological target: T2, HvPap-16 (Hordeum vulgare, UniProt B4ESF4)
T2 construct: gene pap-16; the propeptide cloning list prints HvPap-17 (A23-V156) instead of HvPap-16
T2 sequence (B4ESF4 entry or part of it): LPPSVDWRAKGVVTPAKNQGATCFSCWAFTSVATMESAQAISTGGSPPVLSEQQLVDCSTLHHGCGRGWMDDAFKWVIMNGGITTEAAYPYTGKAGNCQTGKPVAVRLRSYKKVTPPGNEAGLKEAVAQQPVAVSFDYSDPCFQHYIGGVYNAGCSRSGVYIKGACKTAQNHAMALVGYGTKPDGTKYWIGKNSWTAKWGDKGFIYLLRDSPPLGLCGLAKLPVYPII

[3] = biological target: T3, HvPap-6 (Hordeum vulgare, UniProt B4ESE8)
T3 construct: gene pap-6; propeptide printed as A25-E131
T3 sequence (B4ESE8 entry or part of it): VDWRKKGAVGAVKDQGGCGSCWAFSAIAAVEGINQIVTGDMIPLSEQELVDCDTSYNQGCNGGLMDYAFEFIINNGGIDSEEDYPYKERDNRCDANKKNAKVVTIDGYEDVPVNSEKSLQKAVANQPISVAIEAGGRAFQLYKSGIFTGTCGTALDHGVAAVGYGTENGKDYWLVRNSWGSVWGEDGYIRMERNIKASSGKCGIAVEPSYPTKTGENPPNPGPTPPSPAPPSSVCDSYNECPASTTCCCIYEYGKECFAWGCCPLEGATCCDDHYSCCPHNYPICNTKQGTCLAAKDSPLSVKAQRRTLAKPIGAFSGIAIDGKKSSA

[4] = biological target: T4, HvPap-4 (Hordeum vulgare, UniProt B4ESE6)
T4 construct: gene pap-4; propeptide printed as R25-D134
T4 sequence (B4ESE6 entry or part of it): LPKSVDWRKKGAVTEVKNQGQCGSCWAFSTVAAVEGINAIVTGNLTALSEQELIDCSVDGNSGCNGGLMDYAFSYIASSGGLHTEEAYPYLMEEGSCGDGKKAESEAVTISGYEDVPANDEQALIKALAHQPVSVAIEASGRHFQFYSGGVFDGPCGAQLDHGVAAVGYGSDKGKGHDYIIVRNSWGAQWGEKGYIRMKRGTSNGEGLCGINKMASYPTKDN

Structure (SMILES) | fluorescence of released AMC [1] | fluorescence of released AMC [2] | fluorescence of released AMC [3] | fluorescence of released AMC [4]
Cc1cc(=O)oc2cc(NC(=O)[C@H](CCCNC(=N)N)NC(=O)[C@H](CCCNC(=N)N)NC(=O)OCc3ccccc3)ccc12 [Z-RR-AMC] (Cbz-Arg-Arg-{AMC}) | Z-FR-AMC (for cathepsin L) or Z-RR-AMC (for cathepsin B) fluorescent substrates were added | – | – | –
Cc1cc(=O)oc2cc(NC(=O)[C@H](CCCNC(=N)N)NC(=O)[C@H](Cc3ccccc3)NC(=O)OCc3ccccc3)ccc12 [Z-FR-AMC] (Cbz-Phe-Arg-{AMC}) | – | Z-FR-AMC (for cathepsin L) or Z-RR-AMC (for cathepsin B) fluorescent substrates were added | Z-FR-AMC (for cathepsin L) or Z-RR-AMC (for cathepsin B) fluorescent substrates were added | Z-FR-AMC (for cathepsin L) or Z-RR-AMC (for cathepsin B) fluorescent substrates were added
